# Marks after values point to notes of the source that are not given here.
# System: not listed separately
# Assay: PC content of red wine before and after in vitro simulated gastrointestinal digestion (HPLC)
# Type: in vitro ADME
# Conditions: not given
# Description: The digestion procedure was carried out by adapting the method of Brodkorb et al. and Gómez et al.. […] One milliliter (50 units/mL) of porcine amylase was prepared in a 15 mM Na₃PO₄ buffer solution (pH adjusted to 6.8) containing 1.5 mM CaCl2, and it was added to the red wine solution. After 5 min, 4.5 mL of 0.12 M HCl was added to the mixture to adjust the pH to 2.4. One milliliter of porcine pepsin (0.02 mg/L) was dissolved in a 20 mM HCl solution. The mixture was then maintained at 37 °C for 120 min. The digestion mixture was then centrifuged at 8000× g for 15 min to obtain samples from the gastric digestion phase. […] The mixture was incubated at pH 6.5 at 37 °C for 3 h before being centrifuged. The extracts of the intestinal phase were the supernatants. The same operation was done three times, and each sample was stored in a refrigerator (−20 °C) immediately for further analysis.
# The Pati method was adopted, with slight modifications, to measure the content of the PCs. The Agilent 1100 series HPLC instrument was used; it was equipped with a degasser, quaternary pump solvent delivery, a DAD system, and a single quadrupole mass detector coupled with an electrospray ionization LC–MS interface. Briefly, th samples were injected into a Zorbax SB C18 reversed-phase column (5 µm,150 × 2.1 mm, Agilent Technologies, Santa Clara, CA, USA) using an autosampler after filtering through 0.45 µm cellulose acetate syringe filters. The column temperature was kept at 30 °C, the injection volume was 10 µL, and the flow rate was 0.3 mL/min. The eluents were water and formic acid in a 99:1 (v/v) (A) ratio and 100% acetonitrile (B). […] The MS configuration was as follows: ESI, negative ion mode, nebulizer pressure of 30 psi, a dry gas flow rate of 10 mL/min, dry gas temperature of 350 °C, and a scan rate of 100~1200 m/z. PCs were determined according to their retention times, UV/VIS spectra, and high-resolution MS spectra, in addition to a comparison with the standards. […] Putative annotations were made using spectral features and literature information on the chromatographic properties and mass spectra records from the metabolome database. A standard curve was drawn using methanol solutions with different concentrations as the standards. The limits of detection and quantitation were calculated according to the signal-to-noise ratio (limit of detection: signal-to-noise ratio ≥ 3; limit of quantitation: signal-to-noise ratio ≥ 10). […] PCs All of the samples were determined in triplicate.
"PC Contents, Cabernet, After Digestion","PC Contents, Helanshan, After Digestion","PC Contents, Tianzhu, After Digestion",Compound
25.4 ± 0.86 ^b mg/L,15.42 ± 0.83 ^b mg/L,16.7 ± 0.75 ^b mg/L,O.Oc1cc(O)c2c(c1)O[C@H](c1ccc(O)c(O)c1)[C@@H](O)C2 [Catechin]
3.11 ± 0.12 ^b mg/L,1.81 ± 0.10 ^c mg/L,4.11 ± 0.18 ^c mg/L,COc1cc(/C=C/C(=O)OC(C(=O)O)C(O)C(=O)O)ccc1O (stereo not drawn) [Fertaric acid]
5.64 ± 0.26 ^b mg/L,5.98 ± 0.27 ^b mg/L,7.64 ± 0.32 ^b mg/L,Procyanidin dimer
29.78 ± 1.28 ^b mg/L,18.76 ± 0.81 ^b mg/L,28.63 ± 0.86 ^b mg/L,COc1cc(-c2oc3cc(O)cc(O)c3c(=O)c2O[C@@H]2O[C@H](CO)[C@@H](O)[C@H](O)[C@H]2O)cc(O)c1O [Laricitrin-3-glc]

# System: Caco-2 cell monolayer
# Assay: Caco-2 transepithelial transport assay of digested red wine
# Type: in vitro ADME, human
# Conditions: Caco-2
# Description: Caco-2 cells were inoculated following the method of Hubatsch et al. […] Briefly, a 5% v/v of CO2 incubator at 37 °C was used to house the cells. […] Caco-2 cells were sub-cultured when they reached 80-90% of the adherent growth by treating them with a 0.05% v/v of trypsin-EDTA solution. The culture between passages 35 and 40 was used for the following experiment. Transport experiments were performed according to the method of Wu et al. with slight modifications. First, 1.0 × 10^5 Caco-2 cells were inoculated onto 12 mm transparent cell culture plates (Transwell). Media were carefully injected into the apical (0.5 mL) and basolateral (1.5 mL) sides of the Transwell plates. The cell culture medium had to be replaced every other day until the cells formed a monolayer. The integrity and transport ability of the Caco-2 cell monolayer were evaluated by measuring the trans-epithelial electrical resistance (TEER) with a MilliCell voltammeter (Millicell ERS-2, Merck Millipore, Billerica, MA, USA). […] When the cell activity exceeded 0.9, a transport experiment was conducted. The apical side was injected with a digested red wine sample (0.5 mL) and was thoroughly mixed with […] Balanced Salt Solution (HBSS) buffer solution. […] The cells were then cultured in a 37 °C, 5% CO2 incubator. Then, 0.25 mL samples were separately taken from the basolateral side of the monolayer. An equal volume of HBSS buffer was then added every half hour from the beginning of the culture until the end of the culture at 6 h. The collected samples were subsequently filtered and placed in the sample bottle for further HPLC analysis. This experiment was repeated several times to collect enough samples for the next antioxidant test. […] The Agilent 1100 series HPLC instrument was used; it was equipped with a degasser, quaternary pump solvent delivery, a DAD system, and a single quadrupole mass detector coupled with an electrospray ionization LC-MS interface. […] The column temperature was kept at 30 °C, the injection volume was 10 μL, and the flow rate was 0.3 mL/min. The eluents were water and formic acid in a 99:1 (v/v) (A) ratio and 100% acetonitrile (B). The gradient elution procedure was as follows: (1) 3% B solvent at 0 min, (2) 3 to 16% B solvent at 10 min, (3) 16 to 20% B solvent at 30 min, and (4) 20% B solvent maintained until the procedure was completed. The MS configuration was as follows: ESI, negative ion mode, nebulizer pressure of 30 psi, a dry gas flow rate of 10 mL/min, dry gas temperature of 350 °C, and a scan rate of 100~1200 m/z. PCs were determined according to their retention times, UV/VIS spectra, and high-resolution MS spectra, in addition to a comparison with the standards. […] If a standard was unavailable, a structurally related compound was used. Putative annotations were made using spectral features and literature information on the chromatographic properties and mass spectra records from the metabolome database. A standard curve was drawn using methanol solutions with different concentrations as the standards. […] PCs All of the samples were determined in triplicate.
"Apparent Permeability Coefficients, Cabernet","Apparent Permeability Coefficients, Helanshan","Apparent Permeability Coefficients, Tianzhu","PC Contents, Cabernet, Transmembrane","PC Contents, Helanshan, Transmembrane","PC Contents, Tianzhu, Transmembrane",Compound
7.77 ± 1.14 ^a ×10^−6 cm/s,7.69 ± 1.23 ^a ×10^−6 cm/s,7.83 ± 1.17 ^a ×10^−6 cm/s,,,,O.Oc1cc(O)c2c(c1)O[C@H](c1ccc(O)c(O)c1)[C@@H](O)C2 [Catechin]
28.2 ± 4.11 ^a ×10^−6 cm/s,27.9 ± 3.64 ^a ×10^−6 cm/s,27.6 ± 3.89 ^a ×10^−6 cm/s,1.40 ± 0.07 ^a mg/L,0.81 ± 0.04 ^a mg/L,0.82 ± 0.03 ^a mg/L,COc1cc(/C=C/C(=O)OC(C(=O)O)C(O)C(=O)O)ccc1O (stereo not drawn) [Fertaric acid]
6.41 ± 1.05 ^a ×10^−6 cm/s,6.48 ± 0.98 ^a ×10^−6 cm/s,6.54 ± 0.86 ^a ×10^−6 cm/s,0.58 ± 0.03 ^a mg/L,0.62 ± 0.02 ^a mg/L,1.52 ± 0.08 ^a mg/L,Procyanidin dimer
1.76 ± 0.17 ^a ×10^−6 cm/s,1.83 ± 0.16 ^a ×10^−6 cm/s,1.79 ± 0.13 ^a ×10^−6 cm/s,0.84 ± 0.04 ^a mg/L,0.55 ± 0.03 ^a mg/L,5.70 ± 0.29 ^a mg/L,COc1cc(-c2oc3cc(O)cc(O)c3c(=O)c2O[C@@H]2O[C@H](CO)[C@@H](O)[C@H](O)[C@H]2O)cc(O)c1O [Laricitrin-3-glc]
